Measured values published in ChEMBL document CHEMBL6134780, “Halogenated retinoid derivatives as dual RARα and RXRα modulators for treating acute promyelocytic leukemia cells” (Eur J Med Chem, 2024).
Calls of active or inactive are those of the source. The calls are words filed in the database; no cut-off is given here.

Tests used:
Assay type in all cases: functional
NB-4 [1] = assay: Cell cycle arrest in human NB4 cells assessed as accumulation of cells at G2/M phase at 2 uM incubated for 3 to 12 hrs by DAPI staining based flow cytometric analysis; settings: time 3-12 hrs
[2] = Cell cycle arrest in human ATRA-resistant NB4-LR2 cells assessed as accumulation of cells at sub-G1 phase at 2 uM incubated for 3 hrs by DAPI staining based flow cytometric analysis (reference value: 9 %)
NB-4 [3] = assay: Cell cycle arrest in human NB4 cells assessed as accumulation of cells at G2/M phase at 1 uM incubated for 24 hrs by DAPI staining based flow cytometric analysis (reference value: 23 %)
NB-4 [4] = assay: Cell cycle arrest in human NB4 cells assessed as accumulation of cells at G0/G1 phase at 2 uM incubated for 6 hrs by DAPI staining based flow cytometric analysis (reference value: 56 %)
NB-4 [5] = assay: Cell cycle arrest in human NB4 cells transfected with pLVX-shPML-RARalpha plasmid assessed as accumulation of cells at S phase at 1 uM incubated for 12 hrs by DAPI staining based flow cytometric analysis (reference value: 19 %)
NB-4 [6] = assay: Cell cycle arrest in human NB4 cells transfected with pLVX-shPML-RARalpha plasmid assessed as accumulation of cells at G0/G1 phase at 1 uM incubated for 12 hrs by DAPI staining based flow cytometric analysis (reference value: 38 %)
NB-4 [7] = assay: Cell cycle arrest in human NB4 cells transfected with pLVX-shPML-RARalpha plasmid assessed as accumulation of cells at G0/G1 phase at 2 uM incubated for 12 hrs by DAPI staining based flow cytometric analysis (reference value: 38 %)
[8] = Cell cycle arrest in human ATRA-resistant NB4-LR2 cells assessed as accumulation of cells at G0/G1 phase at 2 uM incubated for 12 hrs by DAPI staining based flow cytometric analysis (reference value: 57 %)
NB-4 [9] = assay: Cell cycle arrest in human NB4 cells transfected with pLVX-shRXRalpha plasmid assessed as accumulation of cells at S phase at 1 uM incubated for 12 hrs by DAPI staining based flow cytometric analysis (reference value: 19 %)
[10] = Cell cycle arrest in human ATRA-resistant NB4-LR2 cells assessed as accumulation of cells at S phase at 2 uM incubated for 3 hrs by DAPI staining based flow cytometric analysis (reference value: 19 %)
NB-4 [11] = assay: Cell cycle arrest in human NB4 cells transfected with pLVX-shRNA2-negative control assessed as accumulation of cells at G0/G1 phase at 2 uM incubated for 12 hrs by DAPI staining based flow cytometric analysis (reference value: 46 %)
NB-4 [12] = assay: Cell cycle arrest in human NB4 cells assessed as accumulation of cells at G0/G1 phase at 1 uM incubated for 12 hrs by DAPI staining based flow cytometric analysis (reference value: 51 %)
[13] = Cell cycle arrest in human ATRA-resistant NB4-LR2 cells assessed as accumulation of cells at G0/G1 phase at 2 uM incubated for 3 hrs by DAPI staining based flow cytometric analysis (reference value: 57 %)
[14] = Cell cycle arrest in human ATRA-resistant NB4-LR2 cells assessed as accumulation of cells at sub-G1 phase at 0.5 uM incubated for 24 hrs by DAPI staining based flow cytometric analysis (reference value: 12 %)
NB-4 [15] = assay: Cell cycle arrest in human NB4 cells assessed as accumulation of cells at sub-G1 phase at 2 uM incubated for 24 hrs by DAPI staining based flow cytometric analysis (reference value: 3 %)
NB-4 [16] = assay: Cell cycle arrest in human NB4 cells assessed as accumulation of cells at sub-G1 phase at 1 uM incubated for 24 hrs by DAPI staining based flow cytometric analysis (reference value: 3 %)
NB-4 [17] = assay: Cell cycle arrest in human NB4 cells transfected with pLVX-shRNA2-negative control assessed as accumulation of cells at S phase at 2 uM incubated for 12 hrs by DAPI staining based flow cytometric analysis (reference value: 26 %)
NB-4 [18] = assay: Cell cycle arrest in human NB4 cells assessed as accumulation of cells at S phase at 2 uM incubated for 6 hrs by DAPI staining based flow cytometric analysis (reference value: 20 %)
[19] = Cell cycle arrest in human ATRA-resistant NB4-LR2 cells assessed as accumulation of cells at sub-G1 phase at 2 uM incubated for 6 hrs by DAPI staining based flow cytometric analysis (reference value: 9 %)
NB-4 [20] = assay: Cell cycle arrest in human NB4 cells transfected with pLVX-shPML-RARalpha plasmid assessed as accumulation of cells at G2/M phase at 1 uM incubated for 12 hrs by DAPI staining based flow cytometric analysis (reference value: 22 %)
[21] = Cell cycle arrest in human ATRA-resistant NB4-LR2 cells assessed as accumulation of cells at G2/M phase at 1 uM incubated for 12 hrs by DAPI staining based flow cytometric analysis (reference value: 28 %)
[22] = Cell cycle arrest in human ATRA-resistant NB4-LR2 cells assessed as accumulation of cells at G0/G1 phase at 1 uM incubated for 12 hrs by DAPI staining based flow cytometric analysis (reference value: 42 %)
NB-4 [23] = assay: Cell cycle arrest in human NB4 cells transfected with pLVX-shPML-RARalpha plasmid assessed as accumulation of cells at sub-G1 phase at 1 uM incubated for 12 hrs by DAPI staining based flow cytometric analysis (reference value: 21 %)
NB-4 [24] = assay: Cell cycle arrest in human NB4 cells assessed as accumulation of cells at G2/M phase at 2 uM incubated for 12 hrs by DAPI staining based flow cytometric analysis (reference value: 21 %)
[25] = Cell cycle arrest in human ATRA-resistant NB4-LR2 cells assessed as accumulation of cells at sub-G1 phase at 1 uM incubated for 12 hrs by DAPI staining based flow cytometric analysis (reference value: 18 %)

In the case of Cc1cc2c(cc1C(=O)/C(Br)=C\c1ccc(C(=O)O)cc1)C(C)(C)CCC2(C)C, the Activity (NB-4 [1]) is reported as “Active”.

For Cc1cc2c(cc1C(=O)/C(Br)=C/c1ccc(C(=O)O)cc1)C(C)(C)CCC2(C)C, the Activity [2] was 13%, the Activity (NB-4 [3]) was 45% and the Activity (NB-4 [4]) was 30%. It also gave an Activity (NB-4 [5]) of 21%, an Activity (NB-4 [6]) of 27% and an Activity (NB-4 [7]) of 31%. The Activity [8] was 36%, the Activity (NB-4 [9]) was 7% and the Activity [10] was 6%. The Activity (NB-4 [11]) was 30%, the Activity (NB-4 [12]) was 20% and the Activity [13] was 48%. For the same compound, the Activity [14] was 18%, the Activity (NB-4 [15]) was 9% and the Activity (NB-4 [16]) was 8%. The Activity (NB-4 [17]) was 18%, the Activity (NB-4 [18]) was 27% and the Activity [19] was 22%. The Activity (NB-4 [20]) was 27%, the Activity [21] was 52% and the Activity [22] was 10%. For the same compound, the Activity (NB-4 [23]) was 24%, the Activity (NB-4 [24]) was 62% and the Activity [25] was 21%.
